The source of these data is patent publication EP4741395A1, “NOVEL COMPOUND SENSITIVE TO NITROGEN MONOXIDE AND PHARMACEUTICAL COMPOSITION COMPRISING SAME” (Omniamed Co. Ltd, priority 2023, dated 2025).

Assay [1] has as its system splenocytes. Description: NO scavenging activity in Concanavalin A-treated splenocytes (Griess assay). It is filed as cell-based, C57BL/6 mouse. The following applies: Mus musculus, Splenocyte, Concanavalin A 5 µg/mL, 72 hours, read-out: NO Scavenging Activity (%) (Mean±SD). The method, then: (§1) A spleen was isolated from an 8-week-old C57BL/6 mouse, and splenocytes were isolated using a physical method.
(§2) The separated splenocytes were diluted to a concentration of 5×10^6 cells/mL in a RPMI 1640 medium including 10% FBS, 100 U/mL of penicillin and 100 µg/mL of streptomycin, and the diluted splenocytes were dispensed at 500 µL/well into a 48-well plate and 100 µL/well into a 96-well plate, and cultured for 72 hours in an incubator. The splenocytes were treated with Concanavalin A (5 µg/mL) when dispensed to induce an immune response, and herein, […] of the pharmaceutical composition including the compound according to each of the Examples was also added thereto. After 72 hours, the supernatant was collected, and the level of remaining NO was checked through a Griess assay, and calculated by the following Equation 4.

Another assay has as its system IFN-γ. Description: IFN-γ reduction activity in Concanavalin A-treated splenocytes (quantitative ELISA). It is filed as cell-based, C57BL/6 mouse. The conditions noted are these: Mus musculus, Splenocyte, Concanavalin A 5 µg/mL, 72 hours, read-out: IFN-γ Reduction Activity (%) (Mean±SD). The method, then:
as §1, §2
NO is one of important inflammatory mediators, and may increase the level of inflammatory cytokine. Concanavalin A (5 µg/mL), which induces an immune response in splenocytes, and the compound of each of Examples were treated in a concentration-dependent manner to check whether the level of IFN-γ, a representative inflammatory cytokine, was reduced. The supernatant was collected 72 hours after the treatment, and analyzed using a quantitative enzyme-linked immunosorbent assay (Quantitative-ELISA).

The test system of assay [2] is splenocytes. As to the kind of experiment: Inhibitory activity on cell proliferation in splenocytes (CCK-8 analysis). The conditions noted are these: Mus musculus, Splenocyte, Concanavalin A 5 µg/mL, 72 hours, read-out: Inhibitory Activity on Cell Proliferation (%) (Mean±SD). It is filed as cell-based, C57BL/6 mouse.
For another assay, the target named is JAK 1 (Homo sapiens, UniProt P23458). As to the kind of experiment: JAK Human TK kinase enzymatic radiometric assay (Eurofins), JAK 1. The following applies: value close to 100 indicates low JAK activity of the compound.
Chain of JAK 1 (P23458 whole entry): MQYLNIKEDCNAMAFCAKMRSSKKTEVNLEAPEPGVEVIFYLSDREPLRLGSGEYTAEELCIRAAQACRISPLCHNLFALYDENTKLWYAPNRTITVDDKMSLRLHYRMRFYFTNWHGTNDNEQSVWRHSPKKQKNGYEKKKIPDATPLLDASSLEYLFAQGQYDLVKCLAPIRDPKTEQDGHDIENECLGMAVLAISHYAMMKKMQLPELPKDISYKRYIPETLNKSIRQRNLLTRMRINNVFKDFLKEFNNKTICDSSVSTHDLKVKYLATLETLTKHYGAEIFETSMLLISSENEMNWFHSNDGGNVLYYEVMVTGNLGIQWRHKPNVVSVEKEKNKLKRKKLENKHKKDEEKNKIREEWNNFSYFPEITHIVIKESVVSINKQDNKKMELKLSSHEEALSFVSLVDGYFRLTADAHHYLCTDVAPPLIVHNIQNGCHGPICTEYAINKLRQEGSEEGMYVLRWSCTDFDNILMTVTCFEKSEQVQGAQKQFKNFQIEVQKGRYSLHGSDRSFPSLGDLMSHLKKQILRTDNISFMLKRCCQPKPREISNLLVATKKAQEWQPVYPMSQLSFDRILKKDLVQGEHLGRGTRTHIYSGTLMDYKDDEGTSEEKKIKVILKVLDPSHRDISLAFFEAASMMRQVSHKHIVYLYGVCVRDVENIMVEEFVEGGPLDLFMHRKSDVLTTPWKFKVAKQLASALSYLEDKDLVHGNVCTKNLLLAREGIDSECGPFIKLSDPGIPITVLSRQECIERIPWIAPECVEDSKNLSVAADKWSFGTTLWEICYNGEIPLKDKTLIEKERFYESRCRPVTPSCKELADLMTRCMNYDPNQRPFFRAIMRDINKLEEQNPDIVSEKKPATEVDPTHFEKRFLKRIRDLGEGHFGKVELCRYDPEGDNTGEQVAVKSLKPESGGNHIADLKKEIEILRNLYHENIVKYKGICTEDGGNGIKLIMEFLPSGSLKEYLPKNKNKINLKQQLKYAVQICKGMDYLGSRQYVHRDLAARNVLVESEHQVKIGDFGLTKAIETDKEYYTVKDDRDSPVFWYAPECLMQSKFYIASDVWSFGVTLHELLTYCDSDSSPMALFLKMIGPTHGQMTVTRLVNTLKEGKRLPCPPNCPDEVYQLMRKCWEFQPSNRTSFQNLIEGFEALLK
The subject of another assay is Raw 264.7 cell line. As to the kind of experiment: NO scavenging activity in LPS-treated immune cells (Griess reagent). It is filed as cell-based. The conditions noted are these: Mus musculus, RAW264.7, Raw 264.7, LPS 500 ng/mL, 24 hours, read-out: NO Scavenging Activity (%) (Mean±SD). How it is done: Raw 264.7 cell line was seeded in a 48-well plate at a density of 8×10^4 cells/well, and cultured at 37°C in a DMEM medium including 10% FBS, 100 U/mL of penicillin and 100 µg/mL of streptomycin.
The medium was cultured overnight, and then replaced with a fresh medium including 10 µM of the pharmaceutical composition sensitive to nitrogen monoxide including the compound of each of Examples 1 to 30 and 500 ng/mL of LPS, and the fresh medium was cultured again for another 24 hours.
Lastly, in order to measure the amount of NO produced, the amount of NO2^- present in the cell culture medium was measured using a Griess reagent (sulfanilamide, N-1-naphthylethylenediamine dihydrochloride). Specifically, 100 µL of a Griess reagent was mixed with a mixture solution of 50 µL of the cell culture medium and 50 µL of PBS. The mixture solution was reacted for 10 minutes in a well plate, and absorbance thereof at 540 nm was measured.

A short description of assay [3]: DAF-2 assay of NO scavenging activity without and with H2O2 (ROS). It is filed as biochemical. The following applies: SNAP 100 µM, DAF-2 10 µM, 3 hours, 37°C; for NO Scavenging Activity (%) (Mean±SD) With H2O2: H2O2 1 mM. How it is done: The pharmaceutical composition sensitive to nitrogen monoxide including the compound according to each of Examples 23 to 28 and 32 may have scavenging activity for reactive oxygen species (ROS). NO scavenging activity of the pharmaceutical composition was evaluated through a DAF-2 assay.
Specifically, to a 100 µM solution of SNAP, the compound synthesized in each of the Examples was added at a concentration of the following Table 2, and reacted. Then 10 µM of DAF-2 was added thereto, followed by a reaction for 3 hours in a 37°C incubator.
Additionally, a stock solution of H2O2 (10 M) was added to the reaction solution so that SNAP and H2O2 had final concentrations of 100 µM and 1 mM, respectively. Then, the compound synthesized in each of the Examples was added thereto at a concentration of the following Table 11, followed by a reaction in the same manner, and NO scavenging activity was calculated by Equation 1.

Assay [4] can be described thus: DAF-2 assay of NO scavenging activity (NO donor SNAP). It is filed as biochemical. The conditions noted are these: DAF-2 10 µM, SNAP 100 µM, PBS, 3 hours, 37°C. How it is done:
NO scavenging activity of the pharmaceutical composition sensitive to nitrogen monoxide including the compound according to each of Examples 1 to 22, 29 to 31, and 33 to 35 was evaluated through a DAF-2 assay.
Specifically, a reagent stock solution was made using DMSO (dimethyl sulfoxide) in order to prepare 5 mM of DAF-2, 100 mM of SNAP and 5 mM of the compound synthesized in each of the Examples, and for the reaction, the solution was added to a PBS (phosphate buffered saline) solution so that DAF-2, SNAP and the compound had final concentrations of 10 µM, 100 µM and the concentration of Table 1, respectively, followed by a reaction for 3 hours in a 37°C incubator.

From the text for JAK 1: For the compounds of the Examples, JAK activity of each of the compounds was verified using the JAK Human TK Kinase Enzymatic Radiometric Kinase Profiler Assay service provided by Eurofins Scientific.
The activity was verified after inducing a reaction at the JAK 1, 2 and 3 active sites using radioactively labeled ATP.

Regarding `Cc1ccc(N)c(NC(=O)N(C)CCN(C)C(=O)n2ccc3c(N(C)[C@H]4CN(C(=O)CC#N)CC[C@H]4C)ncnc32)c1` [Example 16, N-(2-(3-(2-amino-5-methylphenyl)-1-methylureido)ethyl)-4-(((3R,4R)-1-(2-cyanoacetyl)-4-methylpiperidin-3-yl) (methyl)amino)-N-methyl-7H-pyrrolo[2,3-d]pyrimidine-7-carboxamide], the activity at 10 µM with splenocytes [1] was found to be 27.1 ± 1.2%; in the assay with IFN-γ, 81.4 ± 0.5%; in the assay with Raw 264.7 cell line it was 49.3 ± 0.23%. The inhibition at 10 µM in the assay on splenocytes [2] turned out to be 25 ± 5.67%. For the same molecule, the “JAK 1 Activity” value on JAK 1 (0.1 nM) was determined as 101; on JAK 1 (1 nM), 104; on JAK 1 (10 nM), 98; at JAK 1 (100 nM), 59.
As for `C[C@@H]1CCN(C(=O)CC#N)C[C@@H]1N(C)c1ncnc2c1ccn2C(=O)Nc1cc2c(cc1NC(=O)OCc1ccc(B3OC(C)(C)C(C)(C)O3)cc1)n(C)c(=O)n2C` [Example 28, 4-(4,4,5,5-tetramethyl-1,3,2-dioxaborolan-2-yl)benzyl (6-(4-(((3R,4R)-1-(2-cyanoacetyl)-4-methylpiperidin-3-yl) (methyl)amino)-7H-pyrrolo[2,3-d]pyrimidine-7-carboxamido)-1,3-dimethyl-2-oxo-2,3-dihydro-1H-benzo[d]imidazol-5-yl)carbamate], the activity at 10 µM in the assay with splenocytes [1] was 92 ± 0.56%; with IFN-γ, 100%; in the assay on Raw 264.7 cell line, 49.8 ± 0.43%. The “NO Scavenging Activity (%) (Mean±SD) Without H2O2” value in assay [3] (compound 1 µM) is reported as 3.73± 0.57%; in assay [3] (compound 5 µM) it was 13.25 ±0.69%; in assay [3] (compound 10 µM), 14.18 ±0.62%. The “NO Scavenging Activity (%) (Mean±SD) With H2O2” value in assay [3] (compound 1 µM) stood at 76.23 ±0.94%; in assay [3] (compound 5 µM), 98.01 ±0.04%; in assay [3] (compound 10 µM) it was 98.34 ±0.05%. Besides, in the assay with splenocytes [2], the inhibition at 10 µM came out at 80.7 ± 7.12%.
As for `C[C@@H]1CCN(C(=O)CC#N)C[C@@H]1N(C)c1ncnc2c1ccn2C(=O)N(C)CCN(C)C(=O)Nc1cc2c(cc1N)n(C)c(=O)n2C` [Example 22, N-(2-(3-(6-amino-1,3-dimethyl-2-oxo-2,3-dihydro-1H-benzo[d]imidazol-5-yl)-1-methylureido)ethyl)-4-(((3R,4R)-1-(2-cyanoacetyl)-4-methylpiperidin-3-yl) (methyl)amino)-N-methyl-7H-pyrrolo[2,3-d]pyrimidine-7-carboxamide], the activity at 10 µM in the assay with splenocytes [1] was determined as 45.9 ± 0.51%; with Raw 264.7 cell line it was 31.3 ± 0.88%. Besides, in the assay on splenocytes [2], the inhibition at 10 µM was 19.4 ± 0.21%. Besides, the “NO Scavenging Activity (%) (Mean±SD)” value in assay [4] (compound 1 µM) was found to be 14.83 ±6.51%; in assay [4] (compound 5 µM), 36.86 ±2.09%; in assay [4] (compound 10 µM), 48.96 ±3.12%. Moreover, the “JAK 1 Activity” value at JAK 1 (0.1 nM) is 91; on JAK 1 (1 nM), 97; at JAK 1 (10 nM), 84; at JAK 1 (100 nM), 77.
In the case of `Cc1ccc(NC(=O)N(C)CCN(C)C(=O)n2ccc3c(N(C)[C@H]4CN(C(=O)CC#N)CC[C@H]4C)ncnc32)c(N)c1` [Example 15, N-(2-(3-(2-amino-4-methylphenyl)-1-methylureido)ethyl)-4-(((3R,4R)-1-(2-cyanoacetyl)-4-methylpiperidin-3-yl) (methyl)amino)-N-methyl-7H-pyrrolo[2,3-d]pyrimidine-7-carboxamide], the activity at 10 µM in the assay on splenocytes [1] stood at 31.6 ± 0.16%; in the assay with IFN-γ, 86.5 ± 0.29%; in the assay with Raw 264.7 cell line, 54 ± 0.59%. In addition, the inhibition at 10 µM in the assay on splenocytes [2] turned out to be 22.6 ± 6.36%. For the same molecule, the “JAK 1 Activity” value at JAK 1 (0.1 nM) is on record as 102; on JAK 1 (1 nM) it was 90; on JAK 1 (10 nM), 99; at JAK 1 (100 nM) it was 66.
For the molecule `C[C@@H]1CCN(C(=O)CC#N)C[C@@H]1N(C)c1ncnc2c1ccn2C(=O)Nc1cc(N(C)C)ccc1N` [Example 5, N-(2-amino-5-(dimethylamino)phenyl)-4-(((3R,4R)-1-(2-cyanoacetyl)-4-methylpiperidin-3-yl)(methyl)amino)-7H-pyrrolo[2,3-d]pyrimidine-7-carboxamide], the activity at 10 µM in the assay with splenocytes [1] came to 94.1 ± 0.52%; in the assay with IFN-γ, 96.1 ± 0.45%; in the assay with Raw 264.7 cell line, 84.1 ± 0.01%. The inhibition at 10 µM in the assay on splenocytes [2] is 60.5 ± 5.48%.
Taken in the same sequence, the figures for `C[C@@H]1CCN(C(=O)CC#N)C[C@@H]1N(C)c1ncnc2c1ccn2C(=O)Nc1cc2c(cc1N)n(C)c(=O)n2C` [Example 10, N-(6-amino-1,3-dimethyl-2-oxo-2,3-dihydro-1H-benzo[d]imidazol-5-yl)-4-(((3R,4R)-1-(2-cyanoacetyl)-4-methylpiperidin-3-yl)(methyl)amino)-7H-pyrrolo[2,3-d]pyrimidine-7-carboxamide] were 77 ± 0.87%, 93 ± 2.99%, 93.7 ± 0.11% and 76.3 ± 2.45%.
Taken in the same sequence, the figures for `Cc1ccc(NC(=O)n2ccc3c(N(C)[C@H]4CN(C(=O)CC#N)CC[C@H]4C)ncnc32)c(N)c1` [Example 3, N-(2-amino-4-methylphenyl)-4-(((3R,4R)-1-(2-cyanoacetyl)-4-methylpiperidin-3-yl)(methyl)amino)-7H-pyrrolo[2,3-d]pyrimidine-7-carboxamide] were 98.1 ± 0.34%, 99.1 ± 0.61%, 95.4 ± 0.11% and 76.2 ± 2.45%.
The matching figures for `Cc1ccc(N)c(NC(=O)n2ccc3c(N(C)[C@H]4CN(C(=O)CC#N)CC[C@H]4C)ncnc32)c1` [Example 2, N-(2-amino-5-methylphenyl)-4-(((3R,4R)-1-(2-cyanoacetyl)-4-methylpiperidin-3-yl)(methyl)amino)-7H-pyrrolo[2,3-d]pyrimidine-7-carboxamide]: 94.3 ± 0.27%, 95.2 ± 0.39%, 78.1 ± 0.21% and 90.4 ± 4.69%.
